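Interpolation was linear, between the two tested concentrations surrounding the appropriate level; five concentrations were tested over 48 hours in 96-well plates. The concentration for 50% growth inhibition is given as GI50.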 Activity calls are given as the source filed them. No stated cut-off is given here; in the data, active = GI50 up to about 1.1 µM and inactive = higher.

Test systems include MOLT-4; SW-620; UACC-62; CCRF-CEM; HCT-116; K562; EKVX; SR; UACC-257; OVCAR-4; OVCAR-3; CAKI-1; KM12; SK-OV-3; NCI-H460; U-251; LOX IMVI; SK-MEL-5; IGROV-1; HL-60.
Assay in all cases: NCI anticancer screen, dose series, 48 h

On to `O=c1[nH]c2cc(C(F)(F)F)ccc2nc1C(F)(F)F`, for which the GI50 was 38.4 µM (inactive) in the test with MOLT-4; 53.3 µM (inactive) with SW-620; 43.2 µM (inactive) in the test with UACC-62; 30.8 µM (inactive) with CCRF-CEM; 27.5 µM (inactive) in the test with HCT-116; 50.2 µM (inactive) in the test with K562. The GI50 was 32.3 µM (inactive) in the test with EKVX; 55.8 µM (inactive) in the test with SR; 27.6 µM (inactive) with UACC-257; 51.5 µM (inactive) in the test with OVCAR-4; 18.5 µM (inactive) with OVCAR-3; 30.3 µM (inactive) in the test with CAKI-1. The GI50 with KM12 is 23.7 µM (inactive); in the test on SK-OV-3, 30.4 µM (inactive); in the test on NCI-H460, > 100 µM (inactive); with U-251, 42 µM (inactive); in the test with LOX IMVI, 30.8 µM (inactive); with SK-MEL-5, 13.8 µM (inactive). In addition, in the test on IGROV-1, the GI50 is 29.3 µM (inactive).

`C/C(=C/c1c(C)[nH]c(=O)[nH]c1=O)C(=O)O`: the GI50 in the test on MOLT-4, in the test on SW-620, in the test with HL-60, with UACC-62, in the test on CCRF-CEM and with HCT-116 was > 1370 µM (inactive) each time. Moreover, the GI50 in the test on K562 is > 1370 µM (inactive); in the test on EKVX, 1290 µM (inactive); with UACC-257 it was > 1370 µM (inactive); with OVCAR-4, > 1370 µM (inactive); in the test with OVCAR-3, > 1370 µM (inactive); in the test with CAKI-1 it was > 1370 µM (inactive). For the same compound, the GI50 in the test on KM12, in the test with SK-OV-3, in the test on NCI-H460, in the test with U-251, in the test on LOX IMVI and with SK-MEL-5 was > 1370 µM (inactive) in each case. The GI50 in the test on IGROV-1 is > 1370 µM (inactive).

As to `N#Cc1c(Nc2ccc(F)cc2)[n+]([O-])c2ccc(Cl)cc2[n+]1[O-]`, the GI50 was 2.52 µM (inactive) in the test on MOLT-4; 3.78 µM (inactive) with SW-620; 3.66 µM (inactive) in the test on UACC-62; 2.62 µM (inactive) in the test on CCRF-CEM; 3.05 µM (inactive) with HCT-116; 2.47 µM (inactive) in the test with K562. Moreover, the GI50 in the test with SR was 1.57 µM (inactive); in the test with UACC-257, 2.91 µM (inactive); in the test on OVCAR-4, 2.03 µM (inactive); in the test on OVCAR-3 it was 2.62 µM (inactive); in the test with CAKI-1 it was 3.18 µM (inactive); in the test on KM12, 5.57 µM (inactive). Moreover, the GI50 was 4.06 µM (inactive) with SK-OV-3; 2.38 µM (inactive) in the test on NCI-H460; 2.38 µM (inactive) with U-251; 0.975 µM (active) in the test on LOX IMVI; 3.91 µM (inactive) in the test on SK-MEL-5; 1.33 µM (inactive) in the test on IGROV-1.

On to `O=C1OC(c2ccc(O)cc2)(c2ccc(O)cc2)c2ccc(Cl)c3cccc1c23.O=C1OC(c2ccc(O)cc2)(c2ccc(O)cc2)c2cccc3c(Cl)ccc1c23`, for which the GI50 with SW-620 was 14.9 µM (inactive); in the test with UACC-62, 10.1 µM (inactive); with CCRF-CEM it was 15.5 µM (inactive); in the test on HCT-116, 9.46 µM (inactive); in the test with K562, 21.2 µM (inactive); with EKVX, 0.075 µM (active). The GI50 with SR was 9.04 µM (inactive); with UACC-257, 22.2 µM (inactive); in the test with OVCAR-4, 0.0384 µM (active); in the test with OVCAR-3 it was 11.5 µM (inactive); in the test on CAKI-1, 8.51 µM (inactive); in the test with KM12 it was 8.11 µM (inactive). Besides, the GI50 in the test on SK-OV-3 was 19.2 µM (inactive); with NCI-H460 it was 12.4 µM (inactive); in the test on U-251 it was 11.9 µM (inactive); with LOX IMVI, 10.9 µM (inactive); with SK-MEL-5 it was 12.7 µM (inactive); with IGROV-1, 12.5 µM (inactive).

The values are drawn from ChEMBL document CHEMBL1201862, “PubChem BioAssay data set” (2004).
